These results are taken from ChEMBL document CHEMBL3301361, “Experimental in vitro DMPK and physicochemical data on a set of publicly disclosed compounds”.

Values after ≈ are worked out from the molar mass of the structure shown.

The nature of data set [1]: in vitro. As to conditions: SD, HW or BN, rat, plasma.
Data set [2] can be described thus: in vitro. Conditions: human, hepatocytes.
Data set [3] is described as follows: in vitro. As to conditions: Dunkin Hartley, guinea pig, plasma.
The nature of data set [4]: in vitro. As to conditions: human, plasma.
Data set [5] in a line: in vitro. As to conditions: Beagle, dog, plasma.
Data set [6] is described as follows: in vitro. Conditions: human.
A short description of data set [7]: physchem. As to conditions: octan-1-ol/water.
The nature of data set [8]: physchem.
Data set [9] is described as follows: in vitro. Conditions: hepatocytes.
Data set [10] in a line: physchem. The source holds these as a separate data set.
Data set [11] can be described thus: physchem. Conditions: pH 7.4 buffer.

Regarding `Cc1nn(-c2ccccc2)c(N)c1-c1ccccc1`, the fraction unbound at 5 h in data set [1] is 0.0457; in data set [3] it was 0.0328; in data set [4], 0.013; in data set [5], 0.0313. The intrinsic metabolic clearance (hepatocyte CLint) in data set [2] is 32.4 µL/min/1e6 cells.
Molecule `N#Cc1cc(F)c(Cl)cc1O[C@H](CCN)c1ccccc1` came in with a microsomal CLint in data set [6] (liver microsomes) of less than 3 µL/min/mg. The fraction unbound at 5 h in data set [3] was 0.101; in [4] (PPB), 0.289; in data set [5], 0.0457. Further, in [7] (pH 7.4, LogD7.4), the logD stood at 0.77. The molecule also showed a pKa in data set [8] of 9.6.
In the case of `CCCCN(CCNCCc1ccc(O)c2[nH]c(=O)sc12)C(=O)CCOCCc1ccccc1`, the fraction unbound at 5 h in [1] was 0.0705; in [3], 0.17; in data set [4] (PPB) it was 0.0532. Moreover, the results for the hepatocyte CLint in data set [2] and in data set [9] were 25.9 µL/min/1e6 cells and more than 150 µL/min/1e6 cells, respectively. Moreover, the microsomal CLint in data set [6] (liver microsomes) stood at 141 µL/min/mg. Further, the logD in data set [7] (pH 7.4, LogD7.4) worked out at 3.
On to `O=c1[nH]c2c(O)ccc([C@@H](O)CNCCCSCCOCCc3cccc4ccccc34)c2s1`, for which the fraction unbound at 5 h was 0.0082 in [1], 0.0088 in data set [3] and 0.0067 in data set [4] (PPB). The hepatocyte CLint came out at 14.8 µL/min/1e6 cells in data set [2] and 85 µL/min/1e6 cells in [9]. This molecule also returned an intrinsic metabolic clearance (microsomal CLint) in data set [6] (liver microsomes) of 70 µL/min/mg. Moreover, the log distribution coefficient (logD) in data set [7] (pH 7.4, LogD7.4) is 3.12.
`Cc1nn(-c2ccc(F)cc2)c(NS(=O)(=O)c2ccc(C(F)(F)F)cc2)c1C(=O)N[C@@H](C)C(C)(C)C`: the free fraction (fraction unbound) at 5 h in data set [1] was 0.0293; in [3], 0.0736; in data set [4] (PPB) it was 0.0136. In data set [6] (microsomes), this molecule came in with a microsomal CLint of 10 µL/min/mg. This molecule also gave a pKa in data set [10] of 3.4. The molecule further displayed a logD in data set [7] (pH 7.4, LogD7.4) of 2.35. Further, the hepatocyte CLint in data set [9] came out at 5.01 µL/min/1e6 cells.
For `O=c1[nH]c2c(O)ccc([C@@H](O)CNCCc3cccc(CNCCc4ccccc4F)c3)c2s1`, the fraction unbound at 5 h in [1] is 0.134; in [3], 0.107. The figures for the hepatocyte CLint in data set [2] and in data set [9] were less than 3 µL/min/1e6 cells and 22 µL/min/1e6 cells, respectively. In data set [6] (liver microsomes), this molecule displayed a microsomal CLint of 17 µL/min/mg. The same molecule registered a logD in [7] (pH 7.4, LogD7.4) of 1.06.
As to `COc1cccc2c1c(NS(=O)(=O)c1ccc(Cl)s1)nn2Cc1cccc(CNC(=O)C(C)(C)O)c1`, the fraction unbound at 5 h is 0.0082 in [1], 0.035 in data set [3] and 0.0133 in [4] (PPB). For the same molecule, the hepatocyte CLint in data set [2] turned out to be 40 µL/min/1e6 cells; in data set [9], 25 µL/min/1e6 cells. The molecule further showed a microsomal CLint in data set [6] (liver microsomes) of 50 µL/min/mg. Moreover, the logD in [7] (pH 7.4, LogD7.4) amounted to 2.09. For the same molecule, the solubility (thermodynamic) in data set [11] amounted to 81.3 µM (≈ 44.6 µg/mL).
In the case of `CNC(=O)CCCN(C)C(=O)c1ccc2c(c1)c1c(n2C)CC[C@@H](C2CCOCC2)C1`, the fraction unbound at 5 h in data set [1] is 0.0146; in data set [3], 0.329; in [4], 0.0366; in data set [5], 0.258.
Consider `O=C(N[C@@H]1COc2cccc(-c3ccc(CO)nc3)c2C1)c1ccc(OCC(F)(F)F)nc1`, for which the free fraction (fraction unbound) at 5 h in data set [1] was 0.0752; in data set [3], 0.11; in data set [4] (PPB), 0.0374; in data set [5] it was 0.0477.
Turning to `O=C(c1c[nH]c(=O)c2ccccc12)N1CCC(N2CCC(Oc3ccc(Cl)c(Cl)c3)CC2)CC1`, the fraction unbound at 5 h is 0.17 in data set [3], 0.089 in data set [4] (PPB) and 0.0488 in [5]. In [7] (pH 7.4, LogD7.4), this molecule yielded a logD of 3.51.
`CCCNC(c1cccnc1)P(=O)(c1ccccc1)c1ccccc1` (centres undefined): the fraction unbound at 5 h was 0.173 in data set [1], 0.19 in data set [3] and 0.197 in data set [5].
`C[C@H](Cc1cccc(CC(=O)NC23CC4CC(CC(C4)C2)C3)c1)NC[C@H](O)c1ccc(O)c(CO)c1`: the values for the fraction unbound at 5 h in data set [1] and in [3] were 0.134 and 0.208, respectively. Also, the hepatocyte CLint stood at 21.9 µL/min/1e6 cells in data set [2] and 43 µL/min/1e6 cells in data set [9]. In data set [6] (liver microsomes), this molecule came in with a microsomal CLint of 129 µL/min/mg. Also, in [7] (pH 7.4, LogD7.4), the logD was found to be 2.4.
On to `O=C(CC1CCN(Cc2ccn(-c3ccc(C(F)(F)F)cn3)c2)CC1)NC(c1ccc(F)cc1)c1ccc(F)cc1`, for which the free fraction (fraction unbound) at 5 h in data set [1] was 0.0033; in data set [3], 0.013; in [4] (PPB) it was 0.0053; in data set [5], 0.004.
In the case of `CCN(Cc1cc(C(F)(F)F)ccc1-c1cc(CC(=O)O)ccc1OC)C(=O)NCc1ccccc1` [AM-211], the unbound share (fraction unbound) at 5 h in data set [1] is 0.0191; in data set [3] it was 0.0256; in [4] (PPB), 0.0171; in [5] it was 0.0039. The microsomal CLint in data set [6] (microsomes) came out at 67.6 µL/min/mg. Also, the solubility (thermodynamic) in [11] turned out to be 1380 µM (≈ 691 µg/mL). In addition, the hepatocyte CLint in data set [9] worked out at 18.2 µL/min/1e6 cells.
In the case of `CN(C)N(C)C(=O)[C@@]1(Cc2ccccc2)CCCN(C(=O)[C@@H](Cc2c[nH]c3ccccc23)NC(=O)C(C)(C)N)C1` [ANAMORELIN], the fraction unbound at 5 h in data set [1] is 0.16; in data set [3], 0.22; in data set [5] it was 0.0633. Further, the hepatocyte CLint in [2] turned out to be 8.91 µL/min/1e6 cells. Also, the logD in data set [7] (pH 7.4, LogD7.4) amounted to 2.1.
With `CN(C)c1nc(Cc2ccc(NC(=O)c3ccc(C(F)(F)F)cc3)cc2)nc(N(C)C)c1CC(=O)O` [BI-671800], the fraction unbound at 5 h in [1] is 0.0025; in data set [3], 0.0437; in data set [4] (PPB) it was 0.0039. The hepatocyte CLint in data set [2] worked out at 4.47 µL/min/1e6 cells; in data set [9], 18.6 µL/min/1e6 cells. Further, the microsomal CLint in data set [6] (liver microsomes) is less than 3 µL/min/mg. The molecule further showed a logD in data set [7] (pH 7.4, LogD7.4) of 1.46. The solubility (thermodynamic) in data set [11] came to 28.8 µM (≈ 14.4 µg/mL).
Take `NC(=O)N1c2ccccc2C=Cc2ccccc21` [CARBAMAZEPINE]: the fraction unbound at 5 h in data set [1] was 0.266; in data set [3], 0.24; in data set [4] (PPB), 0.294; in data set [5], 0.271. Further, the hepatocyte CLint in data set [2] was 5.25 µL/min/1e6 cells; in data set [9] it was 19.9 µL/min/1e6 cells. The microsomal CLint in data set [6] (microsomes) was 7 µL/min/mg. This molecule also showed a logD in data set [7] (pH 7.4, LogD7.4) of 1.65. Moreover, the solubility (thermodynamic) in data set [11] was determined as 776 µM (≈ 183 µg/mL).
The molecule `Cc1nccn1CC1CCc2c(c3ccccc3n2C)C1=O` (centres undefined) [ONDANSETRON] showed a hepatocyte CLint in data set [2] of less than 3 µL/min/1e6 cells. The molecule further displayed a microsomal CLint in [6] (liver microsomes) of 6.46 µL/min/mg. The molecule also showed a fraction unbound at 5 h in [3] of 0.635. Further, the pH-dependent lipophilicity (logD) in [7] (pH 7.4, LogD7.4) worked out at 1.67. In data set [8], this molecule gave a pKa of 7.73.
Take `OCc1cc(C(O)CNCCCCCCOCCCCc2ccccc2)ccc1O` (centres undefined) [SALMETEROL]: the fraction unbound at 5 h in data set [1] was 0.0736; in data set [3], 0.0477; in [4] (PPB), 0.0661; in data set [5] it was 0.0179. Also, the microsomal CLint in data set [6] (liver microsomes) stood at 58 µL/min/mg. For the same molecule, in data set [9], the hepatocyte CLint stood at 85 µL/min/1e6 cells.
Turning to `C[N+]1(C)[C@@H]2C[C@@H](OC(=O)C(O)(c3cccs3)c3cccs3)C[C@H]1[C@@H]1O[C@@H]12` [TIOTROPIUM], the values for the fraction unbound at 5 h in data set [3] and in [5] were 0.613 and 0.807, respectively. Moreover, the logD in data set [7] (pH 7.4) was -0.25.
As to `COc1ccc(CCO[C@@H]2CCCC[C@H]2N2CC[C@@H](O)C2)cc1OC` [VERNAKALANT], the fraction unbound at 5 h in [1] is 0.776; in data set [3] it was 0.309; in data set [4] (PPB) it was 0.629; in [5], 0.772. Also, the hepatocyte CLint in [2] is 6.46 µL/min/1e6 cells.

For orientation: fraction unbound means the share of the substance not bound to proteins or other matrix. Higher therefore signals weak binding. For orientation: hepatocyte CLint means a measure of how fast metabolising enzymes remove a compound, apart from limits set by blood flow. A word on the microsomal CLint: it is the rate of metabolic loss divided by the concentration. Read a high microsomal CLint as rapid turnover. Broadly, the logD is the decadic logarithm of the distribution of all forms, ionised or not, between an organic phase and buffer at a given pH. Usually pKa stands for the negative logarithm of the acid dissociation constant. A higher pKa goes with a weaker acid or stronger base. As a reminder, the solubility (thermodynamic) is the concentration in solution at equilibrium with solid.
